Holding throughout (type): cell-based
The subject of one test is G542X-CFTR. As to the kind of experiment: HS-YFP assay in null CFBE41o− cells transfected with G542X-CFTR. The settings on record: G418 0.5 mg/ml alone, 24 hr. How it is done: To assess the function and pharmacological sensitivity of G542X-CFTR mutant, inventors used the null version of CFBE41o− cells, i.e. cells with negligible expression of endogenous CFTR and without HS-YFP. Such cells were transiently transfected with the plasmid coding for HS-YFP alone or in combination with: empty plasmid, plasmid coding for wild type CFTR, or plasmid coding for G542X-CFTR. For transfection, cells were seeded in 96-well microplates (30,000 cells/well) in 150 μl of antibiotic-free culture medium. After 24 hours, cells were transfected with the desired plasmids. For each well, 0.2 μg of total plasmid DNA and 0.5 μl of Lipofectamine 2000 (Invitrogen) were first pre-mixed in 50 μl of OPTIMEM (Invitrogen) to generate transfection complexes (60 minutes at room temperature), and then added to the cells. After 24 hour, the complexes were removed by replacement with fresh culture medium. The HS-YFP functional assay was performed after further 24 hours.
To assess the ability of compounds of present invention to improve the rescue of premature stop codon (class I) mutations, we carried out experiments on G542X-CFTR (FIG. 7). Null CFBE41o− cells, devoid of endogenous CFTR expression, were transiently transfected with empty, wild type CFTR or G542X-CFTR plasmids. All cells also received the HS-YFP plasmid to allow functional determination of CFTR-dependent anion transport. […] Where indicated, cells with G542X-CFTR were also treated with G418 (0.5 mg/ml) for 24 hr to induce readthrough of the stop codon mutation, with and without correctors (VX-809 and/or PP028, labeled as VX and PP). […] The activity resulting from wild type CFTR is also shown for comparison.

The target in test [1] is T1, F508del-CFTR (Homo sapiens, UniProt P13569, DEL508-508). As to the kind of experiment: HS-YFP kinetic fluorescence (iodide quenching rate) assay in CFBE41o− cells. Details: expressed in transfected cells; host or cells: CFBE41o- cells with expression of F508del-CFTR and HS-YFP (generated as in Sondo et al. 2011). The settings on record: for AI (%) additivity index / AI additivity index: compound at 10 μM plus VX-809; for AI additivity index: Table 3. The method, boiled down: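 CFBE41o- cells co-expressing F508del-CFTR and HS-YFP, treated 24 h with compound (0.1-0.2% DMSO), then stimulated with 20 μM forskolin plus 50 μM genistein. Fluorescence was read for 14 s during NaI injection. Background-subtracted, normalized traces were fitted exponentially to give maximum quenching rate (QR).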

The target in test [2] is T1, F508del-CFTR. In words: Analysis of F508del-CFTR maturation by immunoblot in CFBE41o− cells. Details: expressed in transfected cells; host or cells: CFBE41o- cells with expression of F508del-CFTR and HS-YFP (generated as in Sondo et al. 2011). The settings on record: compound 10 μM plus VX-809 1 μM, 24 hr. As for the experimental part:
CFBE41o− cells were grown to confluence on 60-mm diameter dishes and lysed in RIPA buffer containing a complete protease inhibitor (Roche; cat. n. 11697498001). Cell lysates were centrifuged at 12000 rpm at 4° C. for 10 min. Supernatant protein concentration was calculated using the BCA assay (Euroclone; cat. n. EMP014500) following the manufacturer's instructions. Equal amounts of total protein content (30 μg) were separated onto 10% Criterion TGX Precast gels (Bio-rad laboratories Inc.; cat. n. 4561033), transferred to nitrocellulose membrane with Trans-Blot Turbo system (Bio-rad Laboratories Inc.) and analyzed by Western blotting. Primary antibody for CFTR was anti-CFTR 596 (University of North Carolina at Chapel Hill, and Cystic Fibrosis Foundation Therapeutics, see Cui L, et al. J. Mol Biol 2007, 365, 981-994) at 1:5000 dilution. As secondary antibody, anti-mouse HRP-conjugated Ab 97023 (Abcam) was used at 1:10000 dilution. Results were subsequently visualized by chemiluminescence using the SuperSignal West Femto Substrate (Thermo Scientific) and the Molecular Imager ChemiDoc XRS System.
To analyze the mechanism of action of the compounds of the invention, two types of experiments were carried out. In the first type of experiment, the electrophoretic mobility of F508del-CFTR protein was determined by immunoblot assay. This is a frequently used method to assess the effect of correctors at the protein level. In control conditions, F508del-CFTR migrates predominantly as a single band of 150 kDa called “band B”. This is the immature form of the protein residing in the endoplasmic reticulum. When the protein folding and stability is improved by correctors, an additional band appears at higher molecular weight (170 kDa). This is the so-called band C, which represents the mature form of the CFTR protein that has reached the Golgi compartment and acquired full glycosylation.
On the technique in general: Immunoblotting shows a protein as a band on a membrane.

Molecules are shown by their SMILES. “Also recorded” adds a separate entry of the source.

Here are results for 16 molecules from patent publication US12410164B2, “Heterocyclic compounds and medical use thereof” (FONDAZIONE TELETHON, priority 2018, dated 2025).

T1 sequence (P13569 with tags, fused parts or gaps DEL508-508): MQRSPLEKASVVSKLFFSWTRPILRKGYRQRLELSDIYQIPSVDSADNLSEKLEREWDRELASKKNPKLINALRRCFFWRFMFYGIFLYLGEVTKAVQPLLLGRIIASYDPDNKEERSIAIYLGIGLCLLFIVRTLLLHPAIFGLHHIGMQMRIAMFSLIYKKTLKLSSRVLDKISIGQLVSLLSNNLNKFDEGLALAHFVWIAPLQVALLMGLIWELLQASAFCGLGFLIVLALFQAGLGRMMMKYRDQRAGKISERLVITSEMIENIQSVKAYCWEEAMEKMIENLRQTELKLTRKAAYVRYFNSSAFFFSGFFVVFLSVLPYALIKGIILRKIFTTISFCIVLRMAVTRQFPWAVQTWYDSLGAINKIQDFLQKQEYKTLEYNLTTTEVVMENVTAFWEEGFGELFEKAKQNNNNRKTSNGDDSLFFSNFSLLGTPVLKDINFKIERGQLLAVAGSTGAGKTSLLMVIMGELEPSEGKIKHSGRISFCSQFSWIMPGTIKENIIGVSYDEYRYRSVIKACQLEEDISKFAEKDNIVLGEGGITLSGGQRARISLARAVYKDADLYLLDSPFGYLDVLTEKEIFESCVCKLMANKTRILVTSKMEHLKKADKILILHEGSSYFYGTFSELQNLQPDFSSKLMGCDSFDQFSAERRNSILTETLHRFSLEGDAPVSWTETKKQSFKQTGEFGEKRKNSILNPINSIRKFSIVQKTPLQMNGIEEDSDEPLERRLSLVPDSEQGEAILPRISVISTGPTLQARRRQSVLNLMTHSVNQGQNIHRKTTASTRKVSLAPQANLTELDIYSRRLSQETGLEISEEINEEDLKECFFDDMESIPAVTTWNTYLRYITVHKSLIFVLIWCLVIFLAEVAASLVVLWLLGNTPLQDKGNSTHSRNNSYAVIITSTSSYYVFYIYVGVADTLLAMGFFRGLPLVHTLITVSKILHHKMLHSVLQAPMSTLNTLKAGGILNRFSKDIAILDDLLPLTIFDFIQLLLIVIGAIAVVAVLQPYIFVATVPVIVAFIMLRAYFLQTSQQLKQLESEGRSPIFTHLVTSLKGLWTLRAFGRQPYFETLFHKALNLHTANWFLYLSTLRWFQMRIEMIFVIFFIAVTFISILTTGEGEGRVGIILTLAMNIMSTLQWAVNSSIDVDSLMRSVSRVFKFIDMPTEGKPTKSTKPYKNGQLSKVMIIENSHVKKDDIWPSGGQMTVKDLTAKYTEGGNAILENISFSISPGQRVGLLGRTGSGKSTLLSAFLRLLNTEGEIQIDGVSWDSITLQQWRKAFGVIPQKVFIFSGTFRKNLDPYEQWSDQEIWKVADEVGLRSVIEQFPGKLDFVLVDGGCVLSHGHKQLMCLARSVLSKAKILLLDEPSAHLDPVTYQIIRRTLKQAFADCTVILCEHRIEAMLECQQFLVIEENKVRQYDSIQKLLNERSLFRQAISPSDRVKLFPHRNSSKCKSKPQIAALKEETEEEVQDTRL

Regarding `CN[C@@H]1[C@@H](O)[C@@H](O[C@@H]2[C@@H](O)[C@H](O[C@H]3O[C@H]([C@@H](C)O)[C@@H](O)[C@H](O)[C@H]3N)[C@@H](N)C[C@H]2N)OC[C@]1(C)O` [G418, reference compound], the “CFTR activity (QR) in G542X-CFTR cells” value with G542X-CFTR is reported as “modest but significant increase in CFTR activity”. In the case of `Cc1ccc(Cn2c(C(=O)OC(C)C)c(Br)c3c2-c2[nH]c(=O)c(S(=O)(=O)c4ccccc4)cc2CC3)cc1` [PP034, Propan-2-yl 7-(benzenesulfonyl)-3-bromo-1-[(4-methylphenyl)methyl]-8-oxo-4,5,8,9-tetrahydro-1H-pyrrolo[3,2-h]quinoline-2-carboxylate], the “AI (%) additivity index” value on F508del-CFTR [1] (Table 1, (QRTOT − QRVX)/QRVX, HS-YFP assay) is on record as 261%. Besides, on F508del-CFTR [1] (relative to the analogue), the “structure-activity comparison of corrector potency/activity” value is “Increased activity”. Moreover, the “band C (mature form) expression versus VX-809 alone” value on F508del-CFTR [2] is listed as “markedly enhances the abundance of the mature form of the protein; also recorded: marked increase in band C expression”.

Regarding `CCOC(=O)c1ccc2n1CCc1cnc(NC3CCCC3)nc1-2` [QZQ14, Ethyl 2-(cyclopentylamino)-5,6-dihydropyrimido[5,4-g]indolizine-8-carboxylate], the “AI (%) additivity index” value on F508del-CFTR [1] (Table 5, (QRTOT-QRVX)/QRVX) is reported as 18%. On to `CC(C)OC(=O)c1ccc2n1CCc1cnc(NC3CCCC3)nc1-2` [QZQ20, Propan-2-yl 2-(cyclopentylamino)-5,6-dihydropyrimido[5,4-g]indolizine-8-carboxylate], for which the “AI (%) additivity index” value at F508del-CFTR [1] (Table 5, (QRTOT-QRVX)/QRVX) is listed as 5%. Take `CC(C)OC(=O)c1ccc2n1CCCc1cnc(N)nc1-2` [QZQ21, Propan-2-yl 2-amino-6,7-dihydro-5H-pyrimido[4,5-c]pyrrolo[1,2-a]azepine-9-carboxylate]: the “AI (%) additivity index” value on F508del-CFTR [1] (Table 5, (QRTOT-QRVX)/QRVX) amounted to 6%. Same read-out and setting: next, `CC(=O)Nc1ncc2c(n1)-c1ccc(C(=O)OC(C)C)n1CCC2` [QZQ26, Propan-2-yl 2-acetamido-6,7-dihydro-5H-pyrimido[4,5-c]pyrrolo[1,2-a]azepine-9-carboxylate]: 2%.

In the case of `CCOC(=O)c1c(Br)c2c(n1Cc1cccc(C)c1)-c1nc(N)ncc1CC2` [SVQ4, Ethyl 2-amino-7-bromo-9-[(3-methylphenyl)methyl]-6,9-dihydro-5H-pyrrolo[3,2-h]quinazoline-8-carboxylate], the AI additivity index at F508del-CFTR [1] ((QRTOT-QRVX)/QRVX) was determined as 4%. Regarding `CCOC(=O)c1cc2c(n1Cc1ccc(C)cc1)-c1nc(NS(=O)(=O)c3ccccc3)ncc1CC2` [SVQ9, Ethyl 2-[(benzenesulfonyl)amino]-9-[(4-methylphenyl)methyl]-6,9-dihydro-5H-pyrrolo[3,2-h]quinazoline-8-carboxylate], the AI additivity index on F508del-CFTR [1] ((QRTOT-QRVX)/QRVX) is listed as 98%. For the molecule `CCOC(=O)c1c(Br)c2c(n1Cc1ccc(C)cc1)-c1nc(NS(=O)(=O)c3ccccc3)ncc1CC2` [SVQ10, Ethyl 2-[(benzenesulfonyl)amino]-7-bromo-9-[(4-methylphenyl)methyl]-6,9-dihydro-5H-pyrrolo[3,2-h]quinazoline-8-carboxylate], the AI additivity index at F508del-CFTR [1] ((QRTOT-QRVX)/QRVX) amounted to 134%. Consider `CCOC(=O)c1cc2c(n1Cc1cccc(C)c1)-c1nc(NS(=O)(=O)c3ccccc3)ncc1CC2` [SVQ11, Ethyl 2-[(benzenesulfonyl)amino]-9-[(3-methylphenyl)methyl]-6,9-dihydro-5H-pyrrolo[3,2-h]quinazoline-8-carboxylate], for which, on F508del-CFTR [1] ((QRTOT-QRVX)/QRVX), the AI additivity index was 151%. With `CCOC(=O)c1c(Br)c2c(n1Cc1cccc(C)c1)-c1nc(NS(=O)(=O)c3ccccc3)ncc1CC2` [SVQ12, Ethyl 2-[(benzenesulfonyl)amino]-7-bromo-9-[(3-methylphenyl)methyl]-6,9-dihydro-5H-pyrrolo[3,2-h]quinazoline-8-carboxylate], the AI additivity index on F508del-CFTR [1] ((QRTOT-QRVX)/QRVX) turned out to be 152%. With `CCOC(=O)c1cc2c(n1Cc1ccc(C)c(C)c1)-c1nc(NS(=O)(=O)c3ccccc3)ncc1CC2` [SVQ13, Ethyl 2-[(benzenesulfonyl)amino]-9-[(3,4-dimethylphenyl)methyl]-6,9-dihydro-5H-pyrrolo[3,2-h]quinazoline-8-carboxylate], on F508del-CFTR [1] ((QRTOT-QRVX)/QRVX), the AI additivity index is reported as 86%.

Turning to `CCOC(=O)c1c(Br)c2c(n1Cc1ccc(C)c(C)c1)-c1nc(NS(=O)(=O)c3ccccc3)ncc1CC2` [SVQ14, Ethyl 2-[(benzenesulfonyl)amino]-7-bromo-9-[(3,4-dimethylphenyl)methyl]-6,9-dihydro-5H-pyrrolo[3,2-h]quinazoline-8-carboxylate], at F508del-CFTR [1] ((QRTOT-QRVX)/QRVX), the AI additivity index is recorded as 128%. For the molecule `CCOC(=O)c1cc2c(n1Cc1ccc(Br)cc1)-c1nc(NS(=O)(=O)c3ccccc3)ncc1CC2` [SVQ15, Ethyl 2-[(benzenesulfonyl)amino]-9-[(4-bromophenyl)methyl]-6,9-dihydro-5H-pyrrolo[3,2-h]quinazoline-8-carboxylate], the AI additivity index on F508del-CFTR [1] ((QRTOT-QRVX)/QRVX) was determined as 100%. In the case of `CCOC(=O)c1c(Br)c2c(n1Cc1ccc(Br)cc1)-c1nc(NS(=O)(=O)c3ccccc3)ncc1CC2` [SVQ16, Ethyl 2-[(benzenesulfonyl)amino]-7-bromo-9-[(4-bromophenyl)methyl]-6,9-dihydro-5H-pyrrolo[3,2-h]quinazoline-8-carboxylate], at F508del-CFTR [1] ((QRTOT-QRVX)/QRVX), the AI additivity index is given as 98%. Consider `Cc1cc(=O)oc2c1cc(C)c1occ(C)c12` [TMA, 4,6,4′-trimethylangelicin, reference compound], for which, on F508del-CFTR [1] (50-500 nM, 1 and 10 μM, with and without VX-809 1 μM, FIG. 4), the “corrective activity of TMA” value is “ineffective at all concentrations”.
